This passage reports MIC and IC50 results from US5874436A, “Triphenylalkyl antimicrobial agents” (priority 1997, dated 1999).

Values after ≈ are worked out from the molar mass of the structure shown.

One assay has as its system selected microorganisms. Put plainly: MIC antimicrobial assay (NCCLS microdilution broth method). It is filed as cell-based. The method, then: 2. MIC Anitimicrobial Assay
The in vitro antimicrobial activity of the compounds was determined by the microdilution broth method following the test method from the National Committee for Laboratory Standards (NCCLS). This method is described in the NCCLS Document M7-A2, Vol.10, No.8 "Methods for Dilution Antimicrobial Susceptibility Test for Bacteria that Grow Aerobically--Second Edition."
In this method two-fold serial dilutions of drug in cation supplemented Mueller-Hinton broth are added to wells in microdilution trays. The test organisms are prepared by adjusting the turbidity of actively growing broth cultures so that the final concentration of test organism after it is added to the wells is approximately 5×10^4 CFUs/well).
Following inoculation of the microdilution trays, the trays are incubated at 35° C. for 16-20 hours and then read. […] The amount of growth in the wells containing the test compound is compared with the amount of growth in the growth-control wells (no test compound) used in each tray.

The target in another assay is T1, Kinase A and Spo0F (Bacillus subtilis, UniProt P16497).
T1 construct: made in house; host or cells: E. coli (recombinant, overexpressing)
T1 sequence (P16497 1-606): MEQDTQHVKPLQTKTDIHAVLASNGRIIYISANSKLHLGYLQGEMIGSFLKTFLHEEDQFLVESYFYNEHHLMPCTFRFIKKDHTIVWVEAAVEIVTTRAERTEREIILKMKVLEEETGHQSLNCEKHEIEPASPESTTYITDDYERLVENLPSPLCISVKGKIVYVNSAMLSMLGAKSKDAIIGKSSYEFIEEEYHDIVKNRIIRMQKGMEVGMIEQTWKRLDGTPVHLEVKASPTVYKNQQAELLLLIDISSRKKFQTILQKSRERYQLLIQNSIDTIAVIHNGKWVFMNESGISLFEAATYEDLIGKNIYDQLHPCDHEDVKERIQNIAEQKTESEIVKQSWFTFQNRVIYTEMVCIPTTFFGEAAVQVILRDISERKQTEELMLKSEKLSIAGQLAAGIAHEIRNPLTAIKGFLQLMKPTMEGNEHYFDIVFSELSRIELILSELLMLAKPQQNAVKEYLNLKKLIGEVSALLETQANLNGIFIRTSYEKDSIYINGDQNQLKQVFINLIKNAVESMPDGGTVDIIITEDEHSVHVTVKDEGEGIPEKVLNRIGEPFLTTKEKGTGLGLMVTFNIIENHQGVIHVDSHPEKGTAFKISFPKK
Put plainly: Autophosphorylation of Kinase A and transphosphorylation of Spo0F assay (HPK in vitro assay). It is filed as biochemical. The following applies: inhibitor concentrations from 1 to 500 μM, [32P]ATP, phosphoimager. The method, then: 1. Autophosphorylation of Kinase A and Transphosphorylation of Spo0F Assay
To study the effect of the compounds of the present invention on the signal transduction process in bacteria, the inhibiting effect of the compounds on the sporulation operon proteins Kinase A and Spo0F was examined. Specifically, the inhibition of autophosphorylation of Kinase A and the transphosphorylation of Spo0F was determined in the following assays. The Spo0F response regulator is the primary substrate for phosphorylation by the protein kinase, Kin A, involved in the sporulation process in bacteria. See D. Burbulys, K. A. Trach, J. A. Hoch, Cell, 64, 545-552 (1991). Spo0F and KinA were prepared from recombinant E. coli overexpressing the proteins (J. Cavanagh et al, Amino Acids, 6, 131-140 (1994) and references therein).
The following stock reagents were either prepared and used promptly or stored at the indicated temperature:
8 X Salts : 2M KCl (5 mL), 1M MgCl2 (800 mL), 1M CaCl2 (100 mL), 10 mg/mL phenylmethylsulfonyl fluoride (200 mL), 1 M dithioreitol (50 mL), 0.25M Na2 EDTA (32 mL) and H2 O mL (-20° C.)
5×Loading Dye: 0.5M TRIS-HCl-pH 6.8 (7.5 mL), 10% SDS (2 mL) 0.1% bromophenol blue (0.5 mL), 100% glycerol (3 mL) and 12.5 M 2-mercaptoethanol (0.3 mL)
1-1.3 mg/mL KinA:15 mM TRIS-HCl, pH 8.0, 6 mM KCl; 4 mM 2-mercaptoethanol; 40% glycerol (-20° C.)
1 mg/mL Spo0F: 17.5 mM TRIS-HCl, pH 8.0; 0.7 mM KCl; 0.7 mM MgCl2; 0.7 mM CaCl2; 5mM 2-mercaptoethanol; 30% Glycerol (-20° C.)
5% Stacking Gel: 40% 29:1 acrylamide:bis acrylamide (1.25 mL), 0.5M TRIS-HCl, pH 6.8 (2.5 mL), 10% SDS (0.1 mL), D-H2 O (6.15 mL) 10% ammonium persulfate (100 mL) and TEMED (25 mL) SDS Running Buffer: TRIS-BASE (3.02 g), glycine (14.4 g) SDS (1 g), D-H2 O (to 1L)
The reaction mixture was prepared from 8×Salts (87 μL), 1M TRIS, pH 8 (118 μL), 50% glycerol (63 μL), Spo0F (14.1 μL) and KinA (7.0 μL). Microcentrifuge tubes were charged with the reaction mixture (18.5 μL) and a 1.0 mM solution of the test compound in 5% DMSO (18.5 μL), and incubated for 15 min on ice. 100 mM ATP solution (3.0 μl, containing 625 μCi [^32 P]ATP) was added, and the mixture left for 10 minutes at room temperature. The reaction was quenched with 5×loading dye (10 μL per tube) and the samples were loaded on a prepared 5% Stacking Gel, or stored on dry ice until ready for use. The prepared wells were filled with SDS Running Buffer, samples were loaded into the wells, and 80 volts were applied to the gel until the dye front reached the bottom of the stacking gel. The voltage was then increased to 250 volts until electrophoresis was complete. Radioactive bands in the gel corresponding to phosphorylated KinA and Spo0F were imaged and quantitated with a phosphoimager.
If either enzyme was inhibited (as evidenced by the absence of labelled protein in the developed gel), an IC50 was calculated by running the assay with a range of inhibitor concentrations from 1 to 500 μM. After electrophoresis of the reaction mixtures, percent inhibition was determined by measuring the concentration of radioactive phosphorus with a phosphoimager and calculating the values using a software program (BioRad Molecular Analyst).

As usually defined, the MIC is the least concentration at which growth counts as inhibited. Read a high MIC as weaker potency. Usually IC50 stands for the concentration that inhibits the measured activity by half. A higher IC50 goes with weaker potency. In turn, `O=C(Cc1ccc(O)cc1)OCCC(c1ccccc1)(c1ccccc1)c1ccccc1` [Example 23, 3,3,3-Triphenylpropyl 2-(4-hydroxyphenyl)acetate] gave a minimum inhibitory concentration (MIC) against selected microorganisms above 128 µg/mL. The molecule further gave a half-maximal inhibitory concentration (IC50) on Kinase A and Spo0F of 170 µM.

Take `C[N+](C)(Cc1ccccc1)Cc1ccc(OCCC(c2ccccc2)(c2ccccc2)c2ccccc2)cc1.[Cl-]` [Example 28, N-Benzyl-N,N-dimethyl-[4-(3,3,3-triphenylpropoxy)-phenyl]methyl ammonium chloride]: inhibition of growth in the assay on selected microorganisms (MIC) required 2 µg/mL. The molecule also displayed an IC50 on Kinase A and Spo0F of 13 µM.

`N=C(N)NCCc1ccc(OCCCCC(c2ccccc2)(c2ccccc2)c2ccccc2)cc1` [Example 10] had a minimum inhibitory concentration (MIC) in the assay on selected microorganisms of 2 to 4 µg/mL (≈ 4.19 to 8.37 µM). Also, the half-maximal inhibitory concentration (IC50) at Kinase A and Spo0F worked out at 15 µM.

On to `NCCc1ccc(OCCC(c2ccccc2)(c2ccccc2)c2ccccc2)cc1` [Example 3, 2-(4-(3,3,3-triphenylpropoxy)phenyl)ethylamine], for which, in the assay on selected microorganisms, the MIC is 2 to 4 µg/mL (≈ 4.91 to 9.81 µM). Besides, the IC50 on Kinase A and Spo0F stood at 14 µM.

Molecule `O=C(O)CCc1ccc(OCCC(c2ccccc2)(c2ccccc2)c2ccccc2)cc1` [Example 12, 3-[4-(3,3,3-Triphenylpropoxy)phenyl]propionic acid] gave an MIC against selected microorganisms of 2 to 16 µg/mL (≈ 4.58 to 36.7 µM). The IC50 against Kinase A and Spo0F came to 51 µM.

`O=C(O)Cc1ccccc1OCCC(c1ccccc1)(c1ccccc1)c1ccccc1` [Example 36, 2-(3,3,3-Triphenylpropoxy)phenylacetic acid] came in with a minimal inhibitory concentration (MIC) in the assay with selected microorganisms of 16 to 32 µg/mL (≈ 37.9 to 75.7 µM). At Kinase A and Spo0F, the IC50 amounted to 45 µM.

The molecule `C[N+](C)(C)Cc1ccc(OCCC(c2ccccc2)(c2ccccc2)c2ccccc2)cc1.[Cl-]` [Example 33, N,N,N-Trimethyl-[4-(3,3,3-triphenylpropoxy)phenyl]methylammonium chloride] had an MIC with selected microorganisms of 4 to 8 µg/mL. On Kinase A and Spo0F, the IC50 was found to be 29 µM.

`Cc1n(C)cc[n+]1Cc1ccc(OCCC(c2ccccc2)(c2ccccc2)c2ccccc2)cc1.[Cl-]` [Example 30, 1,2-Dimethyl-3-{[4-(3,3,3-triphenylpropoxy)-phenyl]methyl}imidazolium chloride] gave a minimal inhibitory concentration (MIC) with selected microorganisms of 2 to 8 µg/mL. Further, at Kinase A and Spo0F, the IC50 was 28 µM.

Regarding `[Cl-].c1ccc(C(CCOc2ccc(C[n+]3ccccc3)cc2)(c2ccccc2)c2ccccc2)cc1` [Example 29, 1-{[4-(3,3,3-triphenylpropoxy)-phenyl]methyl}pyridinium chloride], the minimum inhibitory concentration (MIC) with selected microorganisms lay within 2 to 4 µg/mL. Besides, the IC50 at Kinase A and Spo0F was found to be 6 µM.

`c1ccc(C(CCOc2ccc(Cc3nnn[nH]3)cc2)(c2ccccc2)c2ccccc2)cc1` [Example 32, 5-[4-(3,3,3-Triphenylpropoxy)phenyl]methyl-1H-tetrazole] came in with an MIC in the assay on selected microorganisms of 8 to 64 µg/mL (≈ 17.9 to 143 µM). The molecule also yielded an IC50 against Kinase A and Spo0F of 19 µM.

Turning to `c1ccc(C(CCOc2ccc(CCc3nnn[nH]3)cc2)(c2ccccc2)c2ccccc2)cc1` [Example 27, 5-{2-[4-(3,3,3-Triphenylpropoxy)phenyl]ethyl}-1H-tetrazole], the minimum inhibitory concentration (MIC) against selected microorganisms fell in the range of 8 to 64 µg/mL (≈ 17.4 to 139 µM). Also, the IC50 against Kinase A and Spo0F is 11 µM.

Turning to `N=C(N)NCCc1ccc(NC(=O)CC(c2ccccc2)(c2ccccc2)c2ccccc2)cc1` [Example 18, N-[4-(2-Guanidinoethyl)phenyl]-3,3,3-triphenylpropionamide], in the assay on selected microorganisms, the minimum inhibitory concentration (MIC) lay within 4 to 16 µg/mL (≈ 8.65 to 34.6 µM). Further, the IC50 at Kinase A and Spo0F worked out at 51 µM.

With `N=C(N)NCCc1ccc(OCCC(c2ccc(Cl)cc2)(c2ccc(Cl)cc2)c2ccc(Cl)cc2)cc1` [Example 9, N-(2-(4-(3,3,3-tris(4-chlorophenyl)propoxy)-phenyl)ethyl)guanidine], the MIC against selected microorganisms turned out to be 8 µg/mL (≈ 14.5 µM). The molecule further displayed a 50% inhibitory concentration (IC50) against Kinase A and Spo0F of 21 µM.

In the assay on selected microorganisms, `O=C(O)C(=Cc1ccc(OCCC(c2ccccc2)(c2ccccc2)c2ccccc2)cc1)C(=O)O` [Example 31, [4-(3,3,3-Triphenylpropoxy)benzylidene]malonic acid] came in with an MIC above 128 µg/mL. For the same molecule, the IC50 against Kinase A and Spo0F was 54 µM.

In turn, `O=C(O)Cc1ccc(OCCC(c2ccccc2)(c2ccccc2)c2ccccc2)cc1` [Example 13, 2-[4-(3,3,3-Triphenylpropoxy)phenyl]acetic acid] registered an MIC with selected microorganisms of 8 to 16 µg/mL (≈ 18.9 to 37.9 µM). On Kinase A and Spo0F, this molecule registered an IC50 of 50 µM.

The molecule `O=C(O)CCCc1ccc(OCCC(c2ccccc2)(c2ccccc2)c2ccccc2)cc1` [Example 15, 4-[4-(3,3,3-Triphenylpropoxy)phenyl]butyric acid] returned a minimal inhibitory concentration (MIC) with selected microorganisms of 8 to 64 µg/mL (≈ 17.8 to 142 µM). Besides, on Kinase A and Spo0F, the half-inhibitory concentration (IC50) worked out at 14 µM.

`NCCc1ccc(NC(=O)CC(c2ccccc2)(c2ccccc2)c2ccccc2)cc1` [Example 16, N-[4-(2-Aminoethyl)phenyl]-3,3,3triphenylpropionamide] yielded a minimal inhibitory concentration (MIC) with selected microorganisms of 32 to 64 µg/mL (≈ 76.1 to 152 µM). For the same molecule, the 50% inhibitory concentration (IC50) at Kinase A and Spo0F was found to be 59 µM.

For the molecule `c1ccc(C(CCOc2ccc(CCC3=NCCCO3)cc2)(c2ccccc2)c2ccccc2)cc1` [Example 26, 4,5-Dihydro-2-{2-[4-(3,3,3-triphenylpropoxy)-phenyl}ethyl}-1,3-oxazine], the MIC against selected microorganisms was in the range of 8 to 16 µg/mL (≈ 16.8 to 33.6 µM). On Kinase A and Spo0F, this molecule had an IC50 of 43 µM.

Regarding `NCc1ccc2cc(OCCC(c3ccccc3)(c3ccccc3)c3ccccc3)ccc2c1` [Example 20, 6-(3,3,3-Triphenylpropoxy)-2-naphthylmethylamine], the MIC against selected microorganisms fell in the range of 4 to 8 µg/mL (≈ 9.02 to 18 µM). At Kinase A and Spo0F, this molecule showed an IC50 of 75 µM.

For `O=C(/C=C/c1ccc(OCCC(c2ccccc2)(c2ccccc2)c2ccccc2)cc1)NCCO` [Example 25, trans N-(2-Hydroxyethyl)-4-(3,3,3-triphenylpropoxy)-cinnamide], the MIC against selected microorganisms was above 128 µg/mL. The IC50 at Kinase A and Spo0F was 150 µM.

As for `N=C(N)NCCc1ccc(OCCC(c2ccccc2)(c2ccccc2)c2ccccc2)cc1` [Example 5], in the assay on selected microorganisms, the MIC lay in the range of 1 to 2 µg/mL (≈ 2.22 to 4.45 µM). The IC50 against Kinase A and Spo0F turned out to be 5 µM.

`O=C(O)CCc1cccc(OCCC(c2ccccc2)(c2ccccc2)c2ccccc2)c1` [Example 35, 3-[3-(3,3,3-Triphenylpropoxy)phenyl]propionic acid] registered an MIC with selected microorganisms of 4 to 128 µg/mL (≈ 9.16 to 293 µM). Moreover, on Kinase A and Spo0F, the IC50 amounted to 42 µM.

`O=C(O)CCc1ccc(SCCC(c2ccccc2)(c2ccccc2)c2ccccc2)cc1` [Example 14, 3-[4-(3,3,3-Triphenylpropylthio)phenyl]propionic acid] returned a minimal inhibitory concentration (MIC) in the assay on selected microorganisms of 4 to 8 µg/mL (≈ 8.84 to 17.7 µM). At Kinase A and Spo0F, this molecule gave an IC50 of 34 µM.
